Measurements from PubChem BioAssay AID2060607 (Molecular Pharmacology Branch, DTP, NCI, 2025).

Tested on: 876862-298-R-J1-PDC complex spheroids, viability % test/control
Experiment: Anticancer human tumor 876862-298-R-J1-PDC patient-derived endometrial carcinoma cell line growth inhibition [CLK]
Conditions: for IC50: curve of first compound; for viability, T/C: stronger effect = lower value
Procedure, shortened: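 Patient-derived tumor cells grown as complex spheroids with HUVEC endothelial cells and mesenchymal stem cells, treated with drug combinations. Concentrations descend in half-log steps from near clinical Cmax, or from 10 microM if Cmax unknown.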

[1] = second compound 0.0316 µM, first compound 0.0316 µM
[2] = second compound 0.0316 µM, first compound 0.1 µM
[3] = second compound 0.0316 µM, first compound 0.316 µM
[4] = second compound 0.0316 µM, first compound 1 µM
[5] = second compound 0.0316 µM, first compound 3.16 µM
[6] = second compound 0.0316 µM, first compound 10 µM
[7] = second compound 0.1 µM, first compound 0.0316 µM
[8] = second compound 0.1 µM, first compound 0.1 µM
[9] = second compound 0.1 µM, first compound 0.316 µM
[10] = second compound 0.1 µM, first compound 1 µM
[11] = second compound 0.1 µM, first compound 3.16 µM
[12] = second compound 0.1 µM, first compound 10 µM
[13] = second compound 0.316 µM, first compound 0.0316 µM
[14] = second compound 0.316 µM, first compound 0.1 µM
[15] = second compound 0.316 µM, first compound 0.316 µM
[16] = second compound 0.316 µM, first compound 1 µM
[17] = second compound 0.316 µM, first compound 3.16 µM
[18] = second compound 0.316 µM, first compound 10 µM
[19] = second compound 1 µM, first compound 0.0316 µM
[20] = second compound 1 µM, first compound 0.1 µM
[21] = second compound 1 µM, first compound 0.316 µM
[22] = second compound 1 µM, first compound 1 µM
[23] = second compound 1 µM, first compound 3.16 µM
[24] = second compound 1 µM, first compound 10 µM
[25] = second compound 3.16 µM, first compound 0.0316 µM
[26] = second compound 3.16 µM, first compound 0.1 µM
[27] = second compound 3.16 µM, first compound 0.316 µM
[28] = second compound 3.16 µM, first compound 1 µM
[29] = second compound 3.16 µM, first compound 3.16 µM
[30] = second compound 3.16 µM, first compound 10 µM
[31] = second compound 10 µM, first compound 0.0316 µM
[32] = second compound 10 µM, first compound 0.1 µM
[33] = second compound 10 µM, first compound 0.316 µM
[34] = second compound 10 µM, first compound 1 µM
[35] = second compound 10 µM, first compound 3.16 µM
[36] = second compound 10 µM, first compound 10 µM
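Note: spheroids exposed to drugs for 7 days before readout.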
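Throughout, for viability, T/C: 100% = DMSO vehicle control wells.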

COc1ccc([C@@H](O)c2cc(-c3ncnc4cc(N5CCOCC5)ccc34)c(F)cc2Cl)nn1 + CN1CCN(c2cc(C(=O)Nc3cc4cc(-c5cnn(C)c5)ccc4cn3)ccn2)CC1
IC50 (second compound 0.0316 µM): 4950 nM
IC50 (second compound 0.1 µM): < 31.6 nM
IC50 (second compound 0.316 µM): < 31.6 nM
IC50 (second compound 1 µM): < 31.6 nM
IC50 (second compound 3.16 µM): < 31.6 nM
IC50 (second compound 10 µM): < 31.6 nM
viability, T/C [1]: 93.3%
viability, T/C [2]: 90%
viability, T/C [3]: 86%
viability, T/C [4]: 84.2%
viability, T/C [5]: 59.2%
viability, T/C [6]: 35%
viability, T/C [7]: 46.2%
viability, T/C [8]: 43.4%
viability, T/C [9]: 47%
viability, T/C [10]: 42.8%
viability, T/C [11]: 31.5%
viability, T/C [12]: 21.1%
viability, T/C [13]: 2.02%
viability, T/C [14]: 2.01%
viability, T/C [15]: 3%
viability, T/C [16]: 2.2%
viability, T/C [17]: 1.56%
viability, T/C [18]: 2.98%
viability, T/C [19]: 0.64%
viability, T/C [20]: 0.77%
viability, T/C [21]: 0.64%
viability, T/C [22]: 0.69%
viability, T/C [23]: 0.55%
viability, T/C [24]: 2.27%
viability, T/C [25]: 1.08%
viability, T/C [26]: 2.43%
viability, T/C [27]: 1.6%
viability, T/C [28]: 1%
viability, T/C [29]: 2.06%
viability, T/C [30]: 1.3%
viability, T/C [31]: 0.75%
viability, T/C [32]: 0.99%
viability, T/C [33]: 1.44%
viability, T/C [34]: 1.58%
viability, T/C [35]: 1.58%
viability, T/C [36]: 1.69%

COc1cccc2c1C(=O)c1c(O)c3c(c(O)c1C2=O)CC(O)(C(=O)CO)CC3OC1CC(N)C(O)C(C)O1 (stereo not given) + CN1CCN(c2cc(C(=O)Nc3cc4cc(-c5cnn(C)c5)ccc4cn3)ccn2)CC1
IC50 (second compound 0.0316 µM): < 31.6 nM
IC50 (second compound 0.1 µM): < 31.6 nM
IC50 (second compound 0.316 µM): < 31.6 nM
IC50 (second compound 1 µM): < 31.6 nM
IC50 (second compound 3.16 µM): < 31.6 nM
IC50 (second compound 10 µM): < 31.6 nM
viability, T/C [1]: 31.7%
viability, T/C [2]: 11.8%
viability, T/C [3]: 7.2%
viability, T/C [4]: 5.47%
viability, T/C [5]: 0.87%
viability, T/C [6]: 4.47%
viability, T/C [7]: 19.7%
viability, T/C [8]: 11.4%
viability, T/C [9]: 8.05%
viability, T/C [10]: 3.31%
viability, T/C [11]: 1.71%
viability, T/C [12]: 4.36%
viability, T/C [13]: 1.75%
viability, T/C [14]: 1.55%
viability, T/C [15]: 1.57%
viability, T/C [16]: 0.79%
viability, T/C [17]: 1.62%
viability, T/C [18]: 3.91%
viability, T/C [19]: 0.91%
viability, T/C [20]: 0.64%
viability, T/C [21]: 0.76%
viability, T/C [22]: 0.97%
viability, T/C [23]: 1.41%
viability, T/C [24]: 4.08%
viability, T/C [25]: 1.18%
viability, T/C [26]: 1.91%
viability, T/C [27]: 0.9%
viability, T/C [28]: 0.76%
viability, T/C [29]: 2.8%
viability, T/C [30]: 3.09%
viability, T/C [31]: 0.55%
viability, T/C [32]: 0.59%
viability, T/C [33]: 1.41%
viability, T/C [34]: 0.97%
viability, T/C [35]: 0.51%
viability, T/C [36]: 1.61%

C=CC(=O)N1CCN(c2nc(=O)n(-c3c(C)ccnc3C(C)C)c3nc(-c4c(O)cccc4F)c(F)cc23)C(C)C1 (stereo not given) + CNC(=O)c1ccc(Nc2nc(OC3CCCC3)c3c(-c4ccc5nc(C)oc5c4)c[nH]c3n2)c(OC)c1
IC50 (second compound 0.0316 µM): > 10000 nM
IC50 (second compound 0.1 µM): 322 nM
IC50 (second compound 0.316 µM): < 31.6 nM
IC50 (second compound 1 µM): < 31.6 nM
IC50 (second compound 3.16 µM): < 31.6 nM
IC50 (second compound 10 µM): < 31.6 nM
viability, T/C [1]: 70.2%
viability, T/C [2]: 84.2%
viability, T/C [3]: 69%
viability, T/C [4]: 90.2%
viability, T/C [5]: 80.9%
viability, T/C [6]: 60.5%
viability, T/C [7]: 52.4%
viability, T/C [8]: 54.5%
viability, T/C [9]: 46%
viability, T/C [10]: 46.9%
viability, T/C [11]: 50.2%
viability, T/C [12]: 41%
viability, T/C [13]: 42.7%
viability, T/C [14]: 43.5%
viability, T/C [15]: 42.2%
viability, T/C [16]: 39.6%
viability, T/C [17]: 46.1%
viability, T/C [18]: 35.2%
viability, T/C [19]: 32.4%
viability, T/C [20]: 29.6%
viability, T/C [21]: 30.1%
viability, T/C [22]: 29.3%
viability, T/C [23]: 29.3%
viability, T/C [24]: 23.3%
viability, T/C [25]: 24%
viability, T/C [26]: 25.2%
viability, T/C [27]: 23.1%
viability, T/C [28]: 21.6%
viability, T/C [29]: 23.5%
viability, T/C [30]: 13.6%
viability, T/C [31]: 24.6%
viability, T/C [32]: 19.5%
viability, T/C [33]: 19.1%
viability, T/C [34]: 22.7%
viability, T/C [35]: 20.1%
viability, T/C [36]: 10.2%

CCCS(=O)(=O)Nc1ccc(F)c(C(=O)c2c[nH]c3ncc(-c4ccc(Cl)cc4)cc23)c1F + CNC(=O)c1ccc(Nc2nc(OC3CCCC3)c3c(-c4ccc5nc(C)oc5c4)c[nH]c3n2)c(OC)c1
IC50 (second compound 0.0316 µM): 7040 nM
IC50 (second compound 0.1 µM): < 31.6 nM
IC50 (second compound 0.316 µM): < 31.6 nM
IC50 (second compound 1 µM): < 31.6 nM
IC50 (second compound 3.16 µM): < 31.6 nM
IC50 (second compound 10 µM): < 31.6 nM
viability, T/C [1]: 72.1%
viability, T/C [2]: 89.1%
viability, T/C [3]: 88.1%
viability, T/C [4]: 90.9%
viability, T/C [5]: 68.2%
viability, T/C [6]: 42%
viability, T/C [7]: 40.2%
viability, T/C [8]: 54.9%
viability, T/C [9]: 50.5%
viability, T/C [10]: 49.2%
viability, T/C [11]: 40.4%
viability, T/C [12]: 26.6%
viability, T/C [13]: 45.6%
viability, T/C [14]: 41.2%
viability, T/C [15]: 43.8%
viability, T/C [16]: 40.1%
viability, T/C [17]: 31.7%
viability, T/C [18]: 18.1%
viability, T/C [19]: 36.9%
viability, T/C [20]: 32%
viability, T/C [21]: 30.7%
viability, T/C [22]: 32.7%
viability, T/C [23]: 22.4%
viability, T/C [24]: 12.7%
viability, T/C [25]: 23.5%
viability, T/C [26]: 25.1%
viability, T/C [27]: 21.2%
viability, T/C [28]: 26.1%
viability, T/C [29]: 19.1%
viability, T/C [30]: 10.8%
viability, T/C [31]: 23.1%
viability, T/C [32]: 21.4%
viability, T/C [33]: 21%
viability, T/C [34]: 22.3%
viability, T/C [35]: 15.9%
viability, T/C [36]: 10.4%

COC1C=CCC(C)C(C)S(=O)(=O)NC(=O)c2ccc3c(c2)N(CC2CCC21)CC1(CCCc2cc(Cl)ccc21)CO3 (stereo not given) + CNC(=O)c1ccc(Nc2nc(OC3CCCC3)c3c(-c4ccc5nc(C)oc5c4)c[nH]c3n2)c(OC)c1
IC50 (second compound 0.0316 µM): 6470 nM
IC50 (second compound 0.1 µM): < 31.6 nM
IC50 (second compound 0.316 µM): < 31.6 nM
IC50 (second compound 1 µM): < 31.6 nM
IC50 (second compound 3.16 µM): < 31.6 nM
IC50 (second compound 10 µM): < 31.6 nM
viability, T/C [1]: 72%
viability, T/C [2]: 92.5%
viability, T/C [3]: 66.1%
viability, T/C [4]: 104%
viability, T/C [5]: 86.2%
viability, T/C [6]: 29.1%
viability, T/C [7]: 46.2%
viability, T/C [8]: 45.4%
viability, T/C [9]: 37.3%
viability, T/C [10]: 32.2%
viability, T/C [11]: 30.3%
viability, T/C [12]: 21.5%
viability, T/C [13]: 40.3%
viability, T/C [14]: 33.6%
viability, T/C [15]: 29.8%
viability, T/C [16]: 24.8%
viability, T/C [17]: 20.5%
viability, T/C [18]: 19.1%
viability, T/C [19]: 31.9%
viability, T/C [20]: 25.8%
viability, T/C [21]: 20.6%
viability, T/C [22]: 17.6%
viability, T/C [23]: 13.8%
viability, T/C [24]: 13.5%
viability, T/C [25]: 26.1%
viability, T/C [26]: 20.3%
viability, T/C [27]: 15.6%
viability, T/C [28]: 12%
viability, T/C [29]: 9.4%
viability, T/C [30]: 7.9%
viability, T/C [31]: 22.6%
viability, T/C [32]: 19%
viability, T/C [33]: 12.3%
viability, T/C [34]: 12.3%
viability, T/C [35]: 9.91%
viability, T/C [36]: 5.3%
